Results as given in the OligoGym collection.
Only the 19 paired bases of each siRNA are shown; overhangs and chemistry are not given here.

What follows are substances tested against PPIB (assay: five studies, different assays). Conditions: siRNA.
Also: test concentration or dose not given here.

Substance | target inhibition [%]
sense AGAGCAUCUACGGUGAGCG / antisense CGCUCACCGUAGAUGCUCU | 71.7
sense AGCAAAUUCCAUCGUGUAA / antisense UUACACGAUGGAAUUUGCU | 86.4
sense AGCAUCUACGGUGAGCGCU / antisense AGCGCUCACCGUAGAUGCU | 64.1
sense AGCUACAGGAGAGAAAGGA / antisense UCCUUUCUCUCCUGUAGCU | 75.8
sense AGGACUUCAUGAUCCAGGG / antisense CCCUGGAUCAUGAAGUCCU | 82.9
sense AGGAGAGAAAGGAUUUGGC / antisense GCCAAAUCCUUUCUCUCCU | 88.4
sense AGGAGGAAAGAGCAUCUAC / antisense GUAGAUGCUCUUUCCUCCU | 58.9
sense AGGGGAGAUGGCACAGGAG / antisense CUCCUGUGCCAUCUCCCCU | 76.1
sense AUAAUUUUGUGGCCUUAGC / antisense GCUAAGGCCACAAAAUUAU | 32.8
sense AUCAAGGACUUCAUGAUCC / antisense GGAUCAUGAAGUCCUUGAU | 66.4
sense AUCGUGUAAUCAAGGACUU / antisense AAGUCCUUGAUUACACGAU | 86.7
sense AUGAUCCAGGGCGGAGACU / antisense AGUCUCCGCCCUGGAUCAU | 48.5
sense AUUUGGCUACAAAAACAGC / antisense GCUGUUUUUGUAGCCAAAU | 13.8
sense CAAAAACAGUGGAUAAUUU / antisense AAAUUAUCCACUGUUUUUG | 90.2
sense CAAAUUCCAUCGUGUAAUC / antisense GAUUACACGAUGGAAUUUG | 92.3
sense CAAGGACUUCAUGAUCCAG / antisense CUGGAUCAUGAAGUCCUUG | 74.4
sense CACCAGGGGAGAUGGCACA / antisense UGUGCCAUCUCCCCUGGUG | 73.8
sense CAGGGCGGAGACUUCACCA / antisense UGGUGAAGUCUCCGCCCUG | 46.8
sense CAGUGGAUAAUUUUGUGGC / antisense GCCACAAAAUUAUCCACUG | 39.7
sense CAUCUACGGUGAGCGCUUC / antisense GAAGCGCUCACCGUAGAUG | 89
sense CCAGGGGAGAUGGCACAGG / antisense CCUGUGCCAUCUCCCCUGG | 21.4
sense CCAUCGUGUAAUCAAGGAC / antisense GUCCUUGAUUACACGAUGG | 87.4

Substance | target inhibition [%]
sense CCCCGAUGAGAACUUCAAA / antisense UUUGAAGUUCUCAUCGGGG | 84.7
sense CCGAUGAGAACUUCAAACU / antisense AGUUUGAAGUUCUCAUCGG | 85.1
sense CCUUAGCUACAGGAGAGAA / antisense UUCUCUCCUGUAGCUAAGG | 77.2
sense CGGUGAGCGCUUCCCCGAU / antisense AUCGGGGAAGCGCUCACCG | 80.2
sense CGUGUAAUCAAGGACUUCA / antisense UGAAGUCCUUGAUUACACG | 88.8
sense CUACAAAAACAGCAAAUUC / antisense GAAUUUGCUGUUUUUGUAG | 71.2
sense CUACAGGAGAGAAAGGAUU / antisense AAUCCUUUCUCUCCUGUAG | 93.9
sense CUUCAAACUGAAGCACUAC / antisense GUAGUGCUUCAGUUUGAAG | 73.1
sense CUUCAUGAUCCAGGGCGGA / antisense UCCGCCCUGGAUCAUGAAG | 88.7
sense GAAAGGAUUUGGCUACAAA / antisense UUUGUAGCCAAAUCCUUUC | 94.2
sense GACUUCAUGAUCCAGGGCG / antisense CGCCCUGGAUCAUGAAGUC | 51.2
sense GAGAAAGGAUUUGGCUACA / antisense UGUAGCCAAAUCCUUUCUC | 92.3
sense GAGAGAAAGGAUUUGGCUA / antisense UAGCCAAAUCCUUUCUCUC | 93.4
sense GAGAUGGCACAGGAGGAAA / antisense UUUCCUCCUGUGCCAUCUC | 70.5
sense GAGCGCUUCCCCGAUGAGA / antisense UCUCAUCGGGGAAGCGCUC | 86.5
sense GAGGAAAGAGCAUCUACGG / antisense CCGUAGAUGCUCUUUCCUC | 58.4
sense GAUCCAGGGCGGAGACUUC / antisense GAAGUCUCCGCCCUGGAUC | 92.7
sense GAUGAGAACUUCAAACUGA / antisense UCAGUUUGAAGUUCUCAUC | 89.7
sense GAUGGCACAGGAGGAAAGA / antisense UCUUUCCUCCUGUGCCAUC | 84.9
sense GCACAGGAGGAAAGAGCAU / antisense AUGCUCUUUCCUCCUGUGC | 90.8
sense GCGCUUCCCCGAUGAGAAC / antisense GUUCUCAUCGGGGAAGCGC | 92.7
sense GCGGAGACUUCACCAGGGG / antisense CCCCUGGUGAAGUCUCCGC | 76.6

Substance | target inhibition [%]
sense GCUUCCCCGAUGAGAACUU / antisense AAGUUCUCAUCGGGGAAGC | 67.8
sense GGAAAGAGCAUCUACGGUG / antisense CACCGUAGAUGCUCUUUCC | 93.3
sense GGAGACUUCACCAGGGGAG / antisense CUCCCCUGGUGAAGUCUCC | 80.9
sense GGAUAAUUUUGUGGCCUUA / antisense UAAGGCCACAAAAUUAUCC | 83.9
sense GGAUUUGGCUACAAAAACA / antisense UGUUUUUGUAGCCAAAUCC | 83.5
sense GGCCUUAGCUACAGGAGAG / antisense CUCUCCUGUAGCUAAGGCC | 94.6
sense GGCUACAAAAACAGCAAAU / antisense AUUUGCUGUUUUUGUAGCC | 77.4
sense GGGAGAUGGCACAGGAGGA / antisense UCCUCCUGUGCCAUCUCCC | 80.4
sense GGGCGGAGACUUCACCAGG / antisense CCUGGUGAAGUCUCCGCCC | 89
sense GUGAGCGCUUCCCCGAUGA / antisense UCAUCGGGGAAGCGCUCAC | 83.9
sense GUGGAUAAUUUUGUGGCCU / antisense AGGCCACAAAAUUAUCCAC | 55
sense GUGGCCUUAGCUACAGGAG / antisense CUCCUGUAGCUAAGGCCAC | 60.3
sense GUUCCAAAAACAGUGGAUA / antisense UAUCCACUGUUUUUGGAAC | 88.1
sense UAAUCAAGGACUUCAUGAU / antisense AUCAUGAAGUCCUUGAUUA | 87.9
sense UACGGUGAGCGCUUCCCCG / antisense CGGGGAAGCGCUCACCGUA | -9.9
sense UCAAACUGAAGCACUACGG / antisense CCGUAGUGCUUCAGUUUGA | 18.1
sense UCAUGAUCCAGGGCGGAGA / antisense UCUCCGCCCUGGAUCAUGA | 92.8
sense UCCAAAAACAGUGGAUAAU / antisense AUUAUCCACUGUUUUUGGA | 75.3
sense UCCAGGGCGGAGACUUCAC / antisense GUGAAGUCUCCGCCCUGGA | 41.8
sense UCUACGGUGAGCGCUUCCC / antisense GGGAAGCGCUCACCGUAGA | 2.8
